{"source": "patent US6919306B2", "about": "“Method of skin care” (Yaizu Suisankagaku Industry Co. Ltd., priority 1999, dated 2005)", "key": {"[1]": {"assay": "NAG kinetics study with 14C labelled NAG", "type": "in vivo", "details": "rats, single forced oral 250 mg/kg of body weight", "description": "A mixture of ^14C labelled NAG (1 st-position carbon atom-labelled product: manufactured by Amasham Life Science Co.) and unlabelled NAG (the one prepared in PREPARATION EXAMPLE 1) was given to rats by single forced oral administration (250 mg/kg of body weight) for in vivo kinetics study. […] About 60% of the administered NAG was utilized as an energy source and excreted as CO2 to expiration. Further, about 20% was excreted to urine and stool."}, "[2]": {"test_system": "moisture content of epidermis", "assay": "Skin moisture content by Corneometer CM825", "type": "in vivo, human", "details": "for Moisture content, Left upper arm / Moisture content, Poll / Moisture content, Below left eye: NAG 1,000 mg/day oral", "description": "(§1) To 22 females usually having a tendency of xeroderma and rough skin (average age: 25.5±10.7), a double blind long-term ingestion study was carried out in the following manners provided that a […] were given to a control group.\n(§2) NAG-containing tablets-administered group (NAG group, n=11): Tablets prepared similarly as in Example 1 as described below (NAG amount: 200 mg/tablet), were ingested at a rate of 5 tablets/day (NAG 1,000 mg/day, as a daily dose).\n(§3) The ingestion period was 8 weeks in each group. The inspection was in principle carried out just before the start of ingestion, 4 weeks after the start of ingestion, and just before the completion of ingestion (8 weeks after the start of ingestion).\nThe moisture content was measured by using Corneometer CM825 (manufactured by Courage+Khazaka Electronic Gmbh). This apparatus measures the moisture content of epidermis by measuring the electrostatic capacity via corneal layer, and is known to be less in error as compared with a conventional impedance method or infrared spectrophotometric method.\n(§4) Measurement sites were 1 cm below the left eye, medial part of left upper arm (3 cm above the elbow), and poll (3 cm below spinous process of neck). With respect to the oil and fat content, since most subjects were scored at 0 at the left upper arm and the poll, only the site below the left eye was measured from the 2nd inspection.\n(§5) In order to keep the environments for the measurements as equal as possible, a room having its internal conditions adjusted to be constant was prepared before the measurements (room temperature: 18 to 20° C., humidity: 45 to 60%), and the subjects were asked to keep in rest in this room for at least 30 minutes. Further, with respect to the makeup at the measurement site, it was in principle prohibited to put on makeup from 60 minutes before the inspection."}, "skin surface acidity": {"test_system": "skin surface acidity", "assay": "Skin acidity (pH) by PH 900", "type": "in vivo, human", "details": "NAG 1,000 mg/day oral", "description": "as §1, §2, §3\nThe acidity was measured by using PH 900 (manufactured by Courage+Khazaka Electronic Gmbh). In use of this apparatus, an electrode is contacted to a skin surface through an ion-permeable membrane neighboring to a glass membrane and the acidity can be measured without electrochemical invasion. In this connection, the optimum pH of female's skin is about 5.5.\nas §4, §5"}}, "data": [{"smiles": "CC(=O)N[C@H]1C(O)O[C@H](CO)[C@@H](O)[C@@H]1O", "note": "(some centres unmarked) [NAG, N-acetylglucosamine]", "values": [{"measurement": "absorption after oral administration", "setting": "[1]", "value": "rapidly absorbed"}, {"measurement": "share excreted to urine and stool", "setting": "[1]", "value": "about 20%"}, {"measurement": "time at which average concentration of radioactivity in blood reached the maximum value", "setting": "[1]", "value": 4, "unit": "h"}, {"measurement": "residual transferred to tissues (e.g. cartilaginous and fatty tissues)", "setting": "[1]; autoradiography and tissue radioactivity", "value": "about 20%"}, {"measurement": "Moisture content, Left upper arm", "setting": "[2]; after 4 weeks", "value": "38.7 ± 5.8"}, {"measurement": "Moisture content, Poll", "setting": "[2]; after 4 weeks", "value": "51.9 ± 5.4"}, {"measurement": "Moisture content, Below left eye", "setting": "[2]; after 4 weeks, p < 0.05", "value": "58.8 ± 14.2"}, {"measurement": "Moisture content, Left upper arm", "setting": "[2]; after 8 weeks", "value": "36.2 ± 6.8"}, {"measurement": "Moisture content, Poll", "setting": "[2]; after 8 weeks", "value": "52.1 ± 10.9"}, {"measurement": "Moisture content, Below left eye", "setting": "[2]; after 8 weeks, p < 0.01", "value": "56.2 ± 8.4"}, {"measurement": "Moisture content, Below left eye", "setting": "[2]; before ingestion", "value": "48.0 ± 8.8"}, {"measurement": "Moisture content, Left upper arm", "setting": "[2]; before ingestion", "value": "37.8 ± 7.8"}, {"measurement": "Moisture content, Poll", "setting": "[2]; before ingestion", "value": "51.3 ± 5.6"}, {"measurement": "moisture content at the site below the left eye, change", "setting": "[2]; NAG group, 1,000 mg/day oral, 8 weeks", "value": "significant increase"}, {"measurement": "Acidity (pH), Below left eye", "setting": "skin surface acidity; after 4 weeks", "value": "5.7 ± 0.5", "unit": "pH"}, {"measurement": "Acidity (pH), Left upper arm", "setting": "skin surface acidity; after 4 weeks", "value": "5.6 ± 0.3", "unit": "pH"}, {"measurement": "Acidity (pH), Poll", "setting": "skin surface acidity; after 4 weeks", "value": "5.4 ± 0.3", "unit": "pH"}, {"measurement": "Acidity (pH), Below left eye", "setting": "skin surface acidity; after 8 weeks", "value": "5.8 ± 0.4", "unit": "pH"}, {"measurement": "Acidity (pH), Left upper arm", "setting": "skin surface acidity; after 8 weeks", "value": "5.7 ± 0.4", "unit": "pH"}, {"measurement": "Acidity (pH), Poll", "setting": "skin surface acidity; after 8 weeks", "value": "5.3 ± 0.4", "unit": "pH"}, {"measurement": "Acidity (pH), Left upper arm", "setting": "skin surface acidity; before ingestion", "value": "5.5 ± 0.3", "unit": "pH"}, {"measurement": "Acidity (pH), Poll", "setting": "skin surface acidity; before ingestion", "value": "5.7 ± 1.1", "unit": "pH"}, {"measurement": "Acidity (pH), Below left eye", "setting": "skin surface acidity; before ingestion, optimum pH about 5.5", "value": "6.0 ± 1.0", "unit": "pH"}]}]}
